Tests used:
Assay in all cases: Drug affinity chromatography with c-ponatinib and LC-MS/MS (ponatinib interactome)
Assay type in all cases: binding
[1] = biological target: T1, proteins of U2OS cell lysate (Homo sapiens, UniProt P20674); conditions: captured protein COX5A, Rank 122
T1 construct: Proteins enriched by c-ponatinib from U2OS cell lysate; endogenous in cells; host or cells: U2OS cell lysate
Procedure, shortened: (§1)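 U2OS cell lysate in NP-40 lysis buffer (2 mg protein per pulldown) was incubated with amine-derivatized NHS beads for 2 h at 4 °C. Bound proteins were washed, eluted with 100 mM formic acid, reduced, alkylated and trypsin-digested, then identified by nano-UPLC–MS/MS on Orbitrap instruments with a 60 min gradient.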

[2] = biological target: T2, proteins of U2OS cell lysate (Homo sapiens, UniProt Q9UNM6); conditions: captured protein PSMD13, Rank 204
T2 construct: Proteins enriched by c-ponatinib from U2OS cell lysate; endogenous in cells; host or cells: U2OS cell lysate
Procedure, shortened: as §1

[3] = biological target: T3, proteins of U2OS cell lysate (Homo sapiens, UniProt P23528); conditions: CFL1, Cofilin-1
T3 construct: Proteins enriched by c-ponatinib from U2OS cell lysate; endogenous in cells; host or cells: U2OS cell lysate
Procedure, shortened: as §1

[4] = biological target: T4, proteins of U2OS cell lysate (Homo sapiens, UniProt P61964); conditions: WDR5, WD repeat-containing protein 5
T4 construct: Proteins enriched by c-ponatinib from U2OS cell lysate; endogenous in cells; host or cells: U2OS cell lysate
Procedure, shortened: as §1

[5] = biological target: T5, proteins of U2OS cell lysate (Homo sapiens, UniProt O43707); conditions: ACTN4, Alpha-actinin-4
T5 construct: Proteins enriched by c-ponatinib from U2OS cell lysate; endogenous in cells; host or cells: U2OS cell lysate
Procedure, shortened: as §1

[6] = biological target: T6, proteins of U2OS cell lysate (Homo sapiens, UniProt P62333); conditions: PSMC6, 26S protease regulatory subunit 10B
T6 construct: Proteins enriched by c-ponatinib from U2OS cell lysate; endogenous in cells; host or cells: U2OS cell lysate
Procedure, shortened: as §1

[7] = biological target: T7, proteins of U2OS cell lysate (Homo sapiens, UniProt P22830); conditions: FECH, Ferrochelatase, mitochondrial
T7 construct: Proteins enriched by c-ponatinib from U2OS cell lysate; endogenous in cells; host or cells: U2OS cell lysate
Procedure, shortened: as §1

[8] = biological target: T8, proteins of U2OS cell lysate (Homo sapiens, UniProt P55060); conditions: CSE1L, Exportin-2
T8 construct: Proteins enriched by c-ponatinib from U2OS cell lysate; endogenous in cells; host or cells: U2OS cell lysate
Procedure, shortened: as §1

[9] = biological target: T9, proteins of U2OS cell lysate (Homo sapiens, UniProt Q14680); conditions: MELK, Maternal embryonic leucine zipper kinase
T9 construct: Proteins enriched by c-ponatinib from U2OS cell lysate; endogenous in cells; host or cells: U2OS cell lysate
Procedure, shortened: as §1

[10] = biological target: T10, proteins of U2OS cell lysate (Homo sapiens, UniProt O00487); conditions: PSMD14, 26S proteasome non-ATPase regulatory subunit 14
T10 construct: Proteins enriched by c-ponatinib from U2OS cell lysate; endogenous in cells; host or cells: U2OS cell lysate
Procedure, shortened: as §1

[11] = biological target: T11, proteins of U2OS cell lysate (Homo sapiens, UniProt P49336); conditions: CDK8, Cyclin-dependent kinase 8
T11 construct: Proteins enriched by c-ponatinib from U2OS cell lysate; endogenous in cells; host or cells: U2OS cell lysate
Procedure, shortened: as §1

[12] = biological target: T12, proteins of U2OS cell lysate (Homo sapiens, UniProt P31946); conditions: YWHAB, 14-3-3 protein beta/alpha
T12 construct: Proteins enriched by c-ponatinib from U2OS cell lysate; endogenous in cells; host or cells: U2OS cell lysate
Procedure, shortened: as §1

[13] = biological target: T13, proteins of U2OS cell lysate (Homo sapiens, UniProt Q9UJZ1); conditions: STOML2, Stomatin-like protein 2, mitochondrial
T13 construct: Proteins enriched by c-ponatinib from U2OS cell lysate; endogenous in cells; host or cells: U2OS cell lysate
Procedure, shortened: as §1

[14] = biological target: T14, proteins of U2OS cell lysate (Homo sapiens, UniProt O95819); conditions: MAP4K4, Mitogen-activated protein kinase kinase kinase kinase 4
T14 construct: Proteins enriched by c-ponatinib from U2OS cell lysate; endogenous in cells; host or cells: U2OS cell lysate
Procedure, shortened: as §1

[15] = biological target: T15, proteins of U2OS cell lysate (Homo sapiens, UniProt P50991); conditions: CCT4, T-complex protein 1 subunit delta
T15 construct: Proteins enriched by c-ponatinib from U2OS cell lysate; endogenous in cells; host or cells: U2OS cell lysate
Procedure, shortened: as §1

[16] = biological target: T16, proteins of U2OS cell lysate (Homo sapiens, UniProt Q7L014); conditions: DDX46, Probable ATP-dependent RNA helicase DDX46
T16 construct: Proteins enriched by c-ponatinib from U2OS cell lysate; endogenous in cells; host or cells: U2OS cell lysate
Procedure, shortened: as §1

[17] = biological target: T17, proteins of U2OS cell lysate (Homo sapiens, UniProt Q9UIA9); conditions: XPO7, Exportin-7
T17 construct: Proteins enriched by c-ponatinib from U2OS cell lysate; endogenous in cells; host or cells: U2OS cell lysate
Procedure, shortened: as §1

[18] = biological target: T18, proteins of U2OS cell lysate (Homo sapiens, UniProt P62854); conditions: RPS26;RPS26P11, 40S ribosomal protein S26
T18 construct: Proteins enriched by c-ponatinib from U2OS cell lysate; endogenous in cells; host or cells: U2OS cell lysate
Procedure, shortened: as §1

[19] = biological target: T19, proteins of U2OS cell lysate (Homo sapiens, UniProt P48047); conditions: ATP5O, ATP synthase subunit O, mitochondrial
T19 construct: Proteins enriched by c-ponatinib from U2OS cell lysate; endogenous in cells; host or cells: U2OS cell lysate
Procedure, shortened: as §1

T7 sequence (P22830 55-423): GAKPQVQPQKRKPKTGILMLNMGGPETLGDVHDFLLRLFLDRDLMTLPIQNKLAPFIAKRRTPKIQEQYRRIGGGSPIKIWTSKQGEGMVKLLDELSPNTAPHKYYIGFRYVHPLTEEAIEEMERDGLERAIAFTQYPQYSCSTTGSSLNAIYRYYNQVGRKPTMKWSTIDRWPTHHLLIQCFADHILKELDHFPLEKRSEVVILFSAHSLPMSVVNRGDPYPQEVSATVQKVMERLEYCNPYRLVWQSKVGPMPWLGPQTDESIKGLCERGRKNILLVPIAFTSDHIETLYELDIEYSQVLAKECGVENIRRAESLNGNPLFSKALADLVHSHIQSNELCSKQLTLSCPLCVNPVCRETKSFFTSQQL
T8 sequence (P55060 whole entry): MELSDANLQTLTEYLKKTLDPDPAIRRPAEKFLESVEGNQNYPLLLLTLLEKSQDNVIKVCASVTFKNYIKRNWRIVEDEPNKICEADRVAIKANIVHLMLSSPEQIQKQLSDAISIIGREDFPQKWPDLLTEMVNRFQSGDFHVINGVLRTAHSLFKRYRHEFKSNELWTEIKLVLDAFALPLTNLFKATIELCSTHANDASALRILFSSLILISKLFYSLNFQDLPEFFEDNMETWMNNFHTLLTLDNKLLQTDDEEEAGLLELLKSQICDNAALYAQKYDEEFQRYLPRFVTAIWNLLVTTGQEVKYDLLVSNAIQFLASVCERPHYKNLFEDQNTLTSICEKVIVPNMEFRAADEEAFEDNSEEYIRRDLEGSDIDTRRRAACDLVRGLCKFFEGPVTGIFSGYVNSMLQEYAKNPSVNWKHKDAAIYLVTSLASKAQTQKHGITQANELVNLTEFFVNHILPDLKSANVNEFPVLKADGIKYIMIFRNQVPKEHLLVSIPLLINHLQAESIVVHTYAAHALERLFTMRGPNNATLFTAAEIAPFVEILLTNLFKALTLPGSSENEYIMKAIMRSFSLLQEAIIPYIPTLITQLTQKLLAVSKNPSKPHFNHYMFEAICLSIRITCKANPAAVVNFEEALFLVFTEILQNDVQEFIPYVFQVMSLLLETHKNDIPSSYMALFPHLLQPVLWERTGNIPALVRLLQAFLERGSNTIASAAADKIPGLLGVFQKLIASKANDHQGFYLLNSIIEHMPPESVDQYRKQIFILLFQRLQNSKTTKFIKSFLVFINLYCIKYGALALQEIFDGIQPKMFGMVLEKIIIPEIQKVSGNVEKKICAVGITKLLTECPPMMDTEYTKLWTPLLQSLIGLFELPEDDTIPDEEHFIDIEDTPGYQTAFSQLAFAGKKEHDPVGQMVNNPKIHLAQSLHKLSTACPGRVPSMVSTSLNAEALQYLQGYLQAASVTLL
T16 sequence (Q7L014 whole entry): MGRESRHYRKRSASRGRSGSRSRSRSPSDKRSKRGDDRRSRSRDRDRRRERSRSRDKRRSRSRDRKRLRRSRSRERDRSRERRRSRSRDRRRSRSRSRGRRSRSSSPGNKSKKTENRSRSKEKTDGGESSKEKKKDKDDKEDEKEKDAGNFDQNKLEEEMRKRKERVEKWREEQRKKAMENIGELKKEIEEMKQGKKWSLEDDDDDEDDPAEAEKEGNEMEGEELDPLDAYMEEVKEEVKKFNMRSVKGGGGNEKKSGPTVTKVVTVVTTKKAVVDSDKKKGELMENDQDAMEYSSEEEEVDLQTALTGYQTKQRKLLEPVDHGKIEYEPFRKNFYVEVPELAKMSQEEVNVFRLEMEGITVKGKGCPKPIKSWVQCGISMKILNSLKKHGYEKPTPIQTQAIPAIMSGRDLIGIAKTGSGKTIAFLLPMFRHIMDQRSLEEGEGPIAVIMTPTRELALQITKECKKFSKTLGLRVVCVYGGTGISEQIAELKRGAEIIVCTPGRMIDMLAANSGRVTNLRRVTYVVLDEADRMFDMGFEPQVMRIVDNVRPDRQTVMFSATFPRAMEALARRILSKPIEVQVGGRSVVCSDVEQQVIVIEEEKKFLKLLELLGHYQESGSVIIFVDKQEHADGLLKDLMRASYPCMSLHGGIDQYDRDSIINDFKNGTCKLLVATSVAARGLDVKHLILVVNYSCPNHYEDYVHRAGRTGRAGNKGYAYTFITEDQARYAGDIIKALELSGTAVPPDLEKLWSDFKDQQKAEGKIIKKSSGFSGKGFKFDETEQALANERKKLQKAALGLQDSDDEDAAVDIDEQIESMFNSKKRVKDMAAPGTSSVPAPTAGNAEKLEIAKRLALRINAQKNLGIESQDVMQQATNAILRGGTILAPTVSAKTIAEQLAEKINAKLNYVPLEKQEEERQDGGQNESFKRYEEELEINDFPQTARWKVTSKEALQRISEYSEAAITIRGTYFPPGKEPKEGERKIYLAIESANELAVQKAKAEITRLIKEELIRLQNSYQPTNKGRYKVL
T5 sequence (O43707 whole entry): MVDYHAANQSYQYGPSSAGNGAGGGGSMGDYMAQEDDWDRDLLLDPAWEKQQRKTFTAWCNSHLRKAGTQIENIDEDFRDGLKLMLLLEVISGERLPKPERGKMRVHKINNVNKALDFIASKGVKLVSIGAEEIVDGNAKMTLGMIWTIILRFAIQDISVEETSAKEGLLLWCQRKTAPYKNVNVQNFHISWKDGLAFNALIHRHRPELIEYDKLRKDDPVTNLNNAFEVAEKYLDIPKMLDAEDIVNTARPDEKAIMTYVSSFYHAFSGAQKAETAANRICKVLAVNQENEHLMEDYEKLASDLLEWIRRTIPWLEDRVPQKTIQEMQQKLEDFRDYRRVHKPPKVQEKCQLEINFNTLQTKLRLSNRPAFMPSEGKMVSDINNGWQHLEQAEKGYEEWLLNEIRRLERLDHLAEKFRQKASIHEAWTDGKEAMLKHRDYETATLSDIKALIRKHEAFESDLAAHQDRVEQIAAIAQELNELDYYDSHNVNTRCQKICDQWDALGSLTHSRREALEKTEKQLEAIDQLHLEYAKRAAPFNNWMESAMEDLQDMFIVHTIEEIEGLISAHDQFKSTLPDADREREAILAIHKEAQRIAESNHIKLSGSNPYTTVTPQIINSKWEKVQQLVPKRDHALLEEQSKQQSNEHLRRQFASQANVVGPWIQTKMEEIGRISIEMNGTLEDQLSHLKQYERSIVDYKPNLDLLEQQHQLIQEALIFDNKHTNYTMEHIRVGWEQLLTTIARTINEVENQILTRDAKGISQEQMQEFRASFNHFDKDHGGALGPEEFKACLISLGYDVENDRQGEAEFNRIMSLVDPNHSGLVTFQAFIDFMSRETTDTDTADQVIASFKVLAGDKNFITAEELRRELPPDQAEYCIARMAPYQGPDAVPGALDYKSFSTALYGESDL
T2 sequence (Q9UNM6 whole entry): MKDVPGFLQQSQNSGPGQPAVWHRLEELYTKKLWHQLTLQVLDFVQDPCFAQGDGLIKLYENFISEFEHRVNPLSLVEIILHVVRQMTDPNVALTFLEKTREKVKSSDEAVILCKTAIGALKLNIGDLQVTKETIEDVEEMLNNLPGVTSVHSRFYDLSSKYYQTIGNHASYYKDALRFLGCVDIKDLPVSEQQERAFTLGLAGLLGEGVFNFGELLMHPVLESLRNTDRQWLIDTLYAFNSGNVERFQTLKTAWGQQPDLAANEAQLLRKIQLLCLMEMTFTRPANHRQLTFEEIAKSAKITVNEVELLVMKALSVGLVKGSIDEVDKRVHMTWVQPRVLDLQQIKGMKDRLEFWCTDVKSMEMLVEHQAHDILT
T6 sequence (P62333 whole entry): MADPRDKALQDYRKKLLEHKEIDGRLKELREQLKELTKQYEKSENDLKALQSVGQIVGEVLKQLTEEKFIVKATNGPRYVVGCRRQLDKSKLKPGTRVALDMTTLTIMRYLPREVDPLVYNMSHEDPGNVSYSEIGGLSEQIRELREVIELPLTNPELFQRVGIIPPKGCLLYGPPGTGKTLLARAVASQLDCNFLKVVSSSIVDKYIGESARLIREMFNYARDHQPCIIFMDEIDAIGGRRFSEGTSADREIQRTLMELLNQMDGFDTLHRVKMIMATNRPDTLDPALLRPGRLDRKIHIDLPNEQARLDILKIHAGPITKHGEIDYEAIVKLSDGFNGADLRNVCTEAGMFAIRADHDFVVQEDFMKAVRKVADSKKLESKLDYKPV
T19 sequence (P48047 24-213): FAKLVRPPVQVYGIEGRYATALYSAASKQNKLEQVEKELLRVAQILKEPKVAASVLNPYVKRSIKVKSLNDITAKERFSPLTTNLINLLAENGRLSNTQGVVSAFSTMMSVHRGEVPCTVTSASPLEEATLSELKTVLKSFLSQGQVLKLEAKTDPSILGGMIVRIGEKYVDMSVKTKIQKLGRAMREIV
T10 sequence (O00487 whole entry): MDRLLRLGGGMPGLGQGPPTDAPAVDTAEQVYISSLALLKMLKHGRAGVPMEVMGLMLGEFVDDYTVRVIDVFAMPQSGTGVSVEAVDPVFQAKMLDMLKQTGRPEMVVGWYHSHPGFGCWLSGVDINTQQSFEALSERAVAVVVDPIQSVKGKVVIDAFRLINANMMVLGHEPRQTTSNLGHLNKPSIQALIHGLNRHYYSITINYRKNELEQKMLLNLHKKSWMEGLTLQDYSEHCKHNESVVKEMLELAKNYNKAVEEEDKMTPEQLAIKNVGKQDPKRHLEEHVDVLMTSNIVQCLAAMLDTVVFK
T13 sequence (Q9UJZ1 29-356): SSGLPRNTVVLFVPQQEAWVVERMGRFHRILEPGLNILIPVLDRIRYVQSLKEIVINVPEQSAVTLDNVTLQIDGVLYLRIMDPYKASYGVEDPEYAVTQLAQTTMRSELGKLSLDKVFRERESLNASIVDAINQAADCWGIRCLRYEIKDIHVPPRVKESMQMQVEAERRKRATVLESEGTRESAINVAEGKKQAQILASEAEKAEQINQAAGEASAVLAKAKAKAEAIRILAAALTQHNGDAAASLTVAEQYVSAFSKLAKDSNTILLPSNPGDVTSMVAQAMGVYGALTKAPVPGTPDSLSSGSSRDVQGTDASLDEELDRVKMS
T1 sequence (P20674 42-150): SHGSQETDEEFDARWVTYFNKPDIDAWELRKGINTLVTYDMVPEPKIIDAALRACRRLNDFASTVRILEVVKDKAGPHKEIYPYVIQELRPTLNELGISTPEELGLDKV

| SMILES | Average LFQ intensity [1] | Average LFQ intensity [2] | Average LFQ PON_WT [3] | Average LFQ PON_WT [4] | Average LFQ PON_WT [5] | Average LFQ PON_WT [6] | Average LFQ PON_WT [7] | Average LFQ PON_WT [8] | Average LFQ PON_WT [9] | Average LFQ PON_WT [10] | Average LFQ PON_WT [11] | Average LFQ PON_WT [12] | Average LFQ PON_WT [13] | Average LFQ PON_WT [14] | Average LFQ PON_WT [15] | Average LFQ PON_WT [16] | Average LFQ PON_WT [17] | Average LFQ PON_WT [18] | Average LFQ PON_WT [19] |
| --- | --- | --- | --- | --- | --- | --- | --- | --- | --- | --- | --- | --- | --- | --- | --- | --- | --- | --- | --- |
| Cc1ccc(C(=O)Nc2ccc(CN3CCN(CCCN)CC3)c(C(F)(F)F)c2)cc1C#Cc1cnc2cccnn12 [c-ponatinib, reference compound] | 23.049 | 21.7826 |  |  |  |  |  |  |  |  |  |  |  |  |  |  |  |  |  |
| Cc1ccc(C(=O)Nc2ccc(CN3CCN(C)CC3)c(C(F)(F)F)c2)cc1C#Cc1cnc2cccnn12 [PON] |  |  | 19.4794 | 20.2851 | 19.9578 | 21.4756 | 25.7972 | 25.3839 | 24.1941 | 20.7842 | 23.7078 | 23.524 | 26.1635 | 26.8473 | 23.8741 | 21.404 | 20.002 | 21.6239 | 24.0207 |

Reference: paper PMC6120666 (The EMBO Journal, 2018)
